Experimental data published in ChEMBL document CHEMBL3526010, “Pharmacokinetics, biotransformation, and mass balance of edoxaban, a selective, direct factor Xa inhibitor, in humans” (Drug Metab Dispos, 2012).

Columns and labels:
[1] = AUC (0 to infinity) in human plasma at 60 mg, po by LC-MS/MS analysis; assay type: ADME, organism-based; set-up: dose 60 mg, route oral, time infinity
Blood [2] = experiment: AUC (0 to infinity) in human whole blood at 60 mg, po by radio-HPLC chromatogram analysis; assay type: ADME, organism-based; set-up: dose 60 mg, time infinity, route oral; conditions: in vivo
Blood [3] = experiment: AUC (0 to t) in human whole blood at 60 mg, po by radio-HPLC chromatogram analysis; assay type: ADME, organism-based; conditions: in vivo
[4] = Elimination half life in human; assay type: ADME, organism-based; conditions: in vivo, read-out: beta t1/2 (converted)
[5] = Drug metabolism in human assessed as metabolite excretion in feces at 60 mg, po after 168 hrs by radio-HPLC chromatogram analysis; assay type: ADME, organism-based; conditions: in vivo
[6] = AUC (0 to t) in human plasma at 60 mg, po by LC-MS/MS analysis; assay type: ADME, organism-based
[7] = Retention time of the compound; assay type: physicochemical
Plasma [8] = experiment: AUC (0 to infinity) in human plasma at 60 mg, po by radio-HPLC chromatogram analysis; assay type: ADME, organism-based; set-up: dose 60 mg, time infinity, route oral; conditions: in vivo
Plasma [9] = experiment: Cmax in human plasma at 60 mg, po by radio-HPLC chromatogram analysis; assay type: ADME, organism-based; set-up: dose 60 mg, route oral; conditions: in vivo
Blood [10] = experiment: Cmax in human whole blood at 60 mg, po by radio-HPLC chromatogram analysis; assay type: ADME, organism-based; set-up: dose 60 mg, route oral; conditions: in vivo
[11] = Terminal elimination half life in human plasma at 60 mg, po by LC-MS/MS analysis; assay type: ADME, organism-based; conditions: read-out: beta t1/2 (converted)
Plasma [12] = experiment: AUC (0 to t) in human plasma at 60 mg, po by radio-HPLC chromatogram analysis; assay type: ADME, organism-based; conditions: in vivo
[13] = Tmax in human plasma at 60 mg, po by LC-MS/MS analysis; assay type: ADME, organism-based
clinical = conditions: human, in vivo
[14] = Cmax in human plasma at 60 mg, po by LC-MS/MS analysis; assay type: ADME, organism-based; set-up: dose 60 mg, route oral
Homo sapiens = experiment: Toxicity in human assessed as sign of adverse effect at 60 mg, po; assay type: organism-based; conditions: in vivo
Plasma [15] = experiment: AUC (0 to t) in human plasma treated with 60 mg, po of [14C]edoxaban by LC-MS/MS analysis; assay type: ADME, organism-based; conditions: in vivo
[16] = Drug excretion in urine of human treated with 60 mg, po of [14C]edoxaban after 168 hrs by radio-HPLC chromatogram analysis; assay type: ADME, organism-based; conditions: in vivo
[17] = Drug excretion in feces of human treated with 60 mg, po of [14C]edoxaban after 168 hrs by radio-HPLC chromatogram analysis; assay type: ADME, organism-based; conditions: in vivo
Plasma [18] = experiment: Tmax in human plasma treated with 60 mg, po of [14C]edoxaban by LC-MS/MS analysis; assay type: ADME, organism-based; conditions: in vivo
Plasma [19] = experiment: AUC (0 to infinity) in human plasma treated with 60 mg, po of [14C]edoxaban by LC-MS/MS analysis; assay type: ADME, organism-based; set-up: dose 60 mg, time infinity, route oral; conditions: in vivo
Plasma [20] = experiment: Cmax in human plasma treated with 60 mg, po of [14C]edoxaban by LC-MS/MS analysis; assay type: ADME, organism-based; set-up: dose 60 mg, route oral; conditions: in vivo
Plasma [21] = experiment: Terminal elimination half life in human plasma treated with 60 mg, po of [14C]edoxaban by LC-MS/MS analysis; assay type: ADME, organism-based

| Compound | Retention_time [7] [min] | AUCt (Plasma [15]) [ng·h/mL] | Drug excretion [16] [%] | Drug excretion [17] [%] | Tmax (Plasma [18]) [h] | AUC (Plasma [19]) [ng·h/mL] | Cmax (Plasma [20]) [ng/mL] | beta t1/2 (Plasma [21]) [h] | further results |
| --- | --- | --- | --- | --- | --- | --- | --- | --- | --- |
| CN1CCc2nc([14C](=O)N[C@@H]3C[C@@H](C(=O)N(C)C)CC[C@@H]3NC(=O)C(=O)Nc3ccc(Cl)cn3)sc2C1 | 54.08 | – | – | – | – | – | – | – | AUC(0-inf) [1]: 1600 ng·h/mL; AUC (Blood [2]): 1.673 ugequiv.h/ml; AUCt (Blood [3]): 1.269 ugequiv.h/ml; half-life [4]: 8 h; Drug excretion [5]: 0.05%; AUC(0-t) [6]: 1580 ng·h/mL; AUC (Plasma [8]): 1.947 ugequiv.h/ml; Cmax (Plasma [9]): 0.349 ugequiv/ml; Cmax (Blood [10]): 0.352 ugequiv/ml; half-life [11]: 7.4 h; AUCt (Plasma [12]): 1.683 ugequiv.h/ml; Tmax [13]: 0.5 h; Tmax (clinical): 1 h; Cmax [14]: 332 ng/mL; Activity (Homo sapiens): Non-toxic |
| CN(C)C(=O)[C@H]1CC[C@H](NC(=O)C(=O)Nc2ccc(Cl)cn2)[C@H](NC(=O)c2nc3c(s2)C[N+](C)([O-])CC3)C1 (stereo partly specified) | 41.45 | – | – | – | – | – | – | – | – |
| CN1CCc2nc(C(=O)N[C@@H]3C[C@@H](C(=O)N(C)C)CC[C@@H]3NC(=O)C(=O)O)sc2C1 | 25.41 | 94.7 | 1.85 | – | 1.8 | 95.8 | 14.9 | 6.9 | Drug excretion ([17]; BLD = below limit of detection): BLD |
| CN1CCc2nc(C(=O)N[C@@H]3C[C@@H](C(=O)N(C)C)CC[C@@H]3N)sc2C1 (stereo in doubt; M2) | 34.09 | – | – | – | – | – | – | – | – |
| CN(C)C(=O)[C@H]1CC[C@H](NC(=O)C(=O)Nc2ccc(Cl)cn2)[C@H](NC(=O)c2nc3c(s2)C[N+](C)([C@@H]2O[C@H](C(=O)[O-])[C@@H](O)[C@H](O)[C@H]2O)CC3)C1 (stereo partly specified) | 38.9 | – | – | – | – | – | – | – | – |

More lines, main results first:

| Retention_time [7] [min] | AUCt (Plasma [15]) [ng·h/mL] | Drug excretion [16] [%] | Drug excretion [17] [%] | Tmax (Plasma [18]) [h] | AUC (Plasma [19]) [ng·h/mL] | Cmax (Plasma [20]) [ng/mL] | beta t1/2 (Plasma [21]) [h] | Compound | further results |
| --- | --- | --- | --- | --- | --- | --- | --- | --- | --- |
| 40.84 | 145.5 | 1.56 | 1.93 | 1.8 | 147 | 22.2 | 8.2 | CN1CCc2nc(C(=O)N[C@@H]3C[C@@H](C(=O)O)CC[C@@H]3NC(=O)C(=O)Nc3ccc(Cl)cn3)sc2C1 | – |
| 46.52 | 55.1 | 0.45 | 1.66 | 1 | 56.2 | 6.99 | 9 | CN(C)C(=O)[C@H]1CC[C@H](NC(=O)C(=O)Nc2ccc(Cl)cn2)[C@H](NC(=O)c2nc3c(s2)CNCC3)C1 | – |
| 49.97 | 3.5 | – | 0.34 | 1.8 | 4.41 | 0.63 | 9 | CNC(=O)[C@H]1CC[C@H](NC(=O)C(=O)Nc2ccc(Cl)cn2)[C@H](NC(=O)c2nc3c(s2)CN(C)CC3)C1 (stereo in doubt; M8) | Drug excretion ([16]; BLD = below limit of detection): BLD |
